# From PubChem BioAssay (NCI)
#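 96-well plates; 48 h exposure; 5 concentrations. Endpoints by linear interpolation between flanking doses. Not reached: highest tested concentration assigned. At the TGI there is no net growth.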
# How the values were obtained:
# Test in all cases: NCI tumour cell line growth inhibition, 48 h
# HOP-62 NSCLC = tested on: HOP-62 NSCLC
# MDA-MB-435 = tested on: MDA-MB-435
# A549 NSCLC = tested on: A549 NSCLC
# SF-295 CNS = tested on: SF-295 CNS
# SNB-19 CNS = tested on: SNB-19 CNS
# IGROV1 ovarian = tested on: IGROV1 ovarian
# HCC-2998 colon = tested on: HCC-2998 colon
# MCF7 breast = tested on: MCF7 breast
# SK-MEL-5 melanoma = tested on: SK-MEL-5 melanoma
# SW-620 colon = tested on: SW-620 colon
# MDA-MB-231 breast = tested on: MDA-MB-231 breast
# SR leukemia = tested on: SR leukemia
# U251 CNS = tested on: U251 CNS
# 786-0 renal = tested on: 786-0 renal
# COLO 205 colon = tested on: COLO 205 colon
# SN12C renal = tested on: SN12C renal
# LOX IMVI melanoma = tested on: LOX IMVI melanoma
# A498 renal = tested on: A498 renal
# ACHN renal = tested on: ACHN renal
# OVCAR-5 ovarian = tested on: OVCAR-5 ovarian
# SF-268 CNS = tested on: SF-268 CNS
# UACC-62 melanoma = tested on: UACC-62 melanoma
# RXF 393 renal = tested on: RXF 393 renal
# CAKI-1 renal = tested on: CAKI-1 renal
# OVCAR-8 ovarian = tested on: OVCAR-8 ovarian
# NCI-H226 lung = tested on: NCI-H226 lung
# OVCAR-4 ovarian = tested on: OVCAR-4 ovarian
# SF-539 CNS = tested on: SF-539 CNS
# UACC-257 melanoma = tested on: UACC-257 melanoma
# NCI/ADR-RES ovarian = tested on: NCI/ADR-RES ovarian
# HL-60(TB) leukemia = tested on: HL-60(TB) leukemia
# CCRF-CEM leukemia = tested on: CCRF-CEM leukemia
# HCT-15 colon = tested on: HCT-15 colon
# EKVX NSCLC = tested on: EKVX NSCLC
# UO-31 renal = tested on: UO-31 renal
# TK-10 renal = tested on: TK-10 renal
# K-562 leukemia = tested on: K-562 leukemia
# SK-OV-3 ovarian = tested on: SK-OV-3 ovarian
# T-47D breast = tested on: T-47D breast
# HCT-116 colon = tested on: HCT-116 colon
# NCI-H522 lung = tested on: NCI-H522 lung
# SNB-75 CNS = tested on: SNB-75 CNS
# MDA-N = tested on: MDA-N
# BT-549 breast = tested on: BT-549 breast
# SK-MEL-28 melanoma = tested on: SK-MEL-28 melanoma
# KM12 colon = tested on: KM12 colon
# HT29 colon = tested on: HT29 colon
# MALME-3M melanoma = tested on: MALME-3M melanoma
# HS 578T breast = tested on: HS 578T breast
# NCI-H460 lung = tested on: NCI-H460 lung
# MOLT-4 leukemia = tested on: MOLT-4 leukemia
# RPMI-8226 leukemia = tested on: RPMI-8226 leukemia
# SK-MEL-2 melanoma = tested on: SK-MEL-2 melanoma
# M14 melanoma = tested on: M14 melanoma
# NCI-H23 lung = tested on: NCI-H23 lung
# PC-3 prostate = tested on: PC-3 prostate
# OVCAR-3 ovarian = tested on: OVCAR-3 ovarian
# HOP-92 NSCLC = tested on: HOP-92 NSCLC
smiles,measurement,setting,value
CN(C)CCn1nc2c3c(c(C(=O)NCCCN(C)CCCNC(=O)c4ccc5c6c(nn5CCN(C)C)-c5ccccc5Nc46)ccc31)Nc1ccccc1-2,TGI,HOP-62 NSCLC,574 nM
same,TGI,MDA-MB-435,415 nM
same,TGI,A549 NSCLC,332 nM
same,TGI,SF-295 CNS,2080 nM
same,TGI,SNB-19 CNS,748 nM
same,TGI,IGROV1 ovarian,15600 nM
same,TGI,HCC-2998 colon,245 nM
same,TGI,MCF7 breast,582 nM
same,TGI,SK-MEL-5 melanoma,1460 nM
same,TGI,SW-620 colon,3490 nM
same,TGI,MDA-MB-231 breast,518 nM
same,TGI,SR leukemia,1200 nM
same,TGI,U251 CNS,452 nM
same,TGI,786-0 renal,1280 nM
same,TGI,COLO 205 colon,227 nM
same,TGI,SN12C renal,708 nM
same,TGI,LOX IMVI melanoma,1280 nM
same,TGI,A498 renal,623 nM
same,TGI,ACHN renal,6260 nM
same,TGI,OVCAR-5 ovarian,751 nM
same,TGI,SF-268 CNS,549 nM
same,TGI,UACC-62 melanoma,424 nM
same,TGI,RXF 393 renal,1450 nM
same,TGI,CAKI-1 renal,3300 nM
same,TGI,OVCAR-8 ovarian,2970 nM
same,TGI,NCI-H226 lung,217 nM
same,TGI,OVCAR-4 ovarian,658 nM
same,TGI,SF-539 CNS,2190 nM
same,TGI,UACC-257 melanoma,1090 nM
same,TGI,NCI/ADR-RES ovarian,> 71200 nM
same,TGI,HL-60(TB) leukemia,944 nM
same,TGI,CCRF-CEM leukemia,2630 nM
same,TGI,HCT-15 colon,16600 nM
same,TGI,EKVX NSCLC,505 nM
same,TGI,UO-31 renal,3220 nM
same,TGI,TK-10 renal,3320 nM
same,TGI,K-562 leukemia,1890 nM
same,TGI,SK-OV-3 ovarian,407 nM
same,TGI,T-47D breast,10500 nM
same,TGI,HCT-116 colon,525 nM
same,TGI,NCI-H522 lung,117 nM
same,TGI,SNB-75 CNS,272 nM
same,TGI,MDA-N,318 nM
same,TGI,BT-549 breast,1650 nM
same,TGI,SK-MEL-28 melanoma,1150 nM
same,TGI,KM12 colon,1330 nM
same,TGI,HT29 colon,561 nM
same,TGI,MALME-3M melanoma,280 nM
same,TGI,HS 578T breast,1860 nM
same,TGI,NCI-H460 lung,432 nM
same,TGI,MOLT-4 leukemia,1580 nM
same,TGI,RPMI-8226 leukemia,1370 nM
same,TGI,SK-MEL-2 melanoma,243 nM
same,TGI,M14 melanoma,1580 nM
same,TGI,NCI-H23 lung,617 nM
same,TGI,PC-3 prostate,834 nM
c1ccc(CNCCN2CCNCC2)nc1,TGI,HOP-62 NSCLC,> 100000 nM
same,TGI,MDA-MB-435,> 100000 nM
same,TGI,A549 NSCLC,> 100000 nM
same,TGI,SF-295 CNS,> 100000 nM
same,TGI,SNB-19 CNS,> 100000 nM
same,TGI,IGROV1 ovarian,> 100000 nM
same,TGI,MCF7 breast,> 100000 nM
same,TGI,SK-MEL-5 melanoma,> 100000 nM
same,TGI,OVCAR-3 ovarian,> 100000 nM
same,TGI,SW-620 colon,> 100000 nM
same,TGI,MDA-MB-231 breast,> 100000 nM
same,TGI,SR leukemia,> 100000 nM
same,TGI,U251 CNS,> 100000 nM
same,TGI,786-0 renal,> 100000 nM
same,TGI,COLO 205 colon,> 100000 nM
same,TGI,HOP-92 NSCLC,> 100000 nM
same,TGI,SN12C renal,> 100000 nM
same,TGI,LOX IMVI melanoma,> 100000 nM
same,TGI,A498 renal,> 100000 nM
same,TGI,ACHN renal,> 100000 nM
same,TGI,OVCAR-5 ovarian,> 100000 nM
same,TGI,SF-268 CNS,> 100000 nM
same,TGI,UACC-62 melanoma,> 100000 nM
same,TGI,RXF 393 renal,> 100000 nM
same,TGI,CAKI-1 renal,> 100000 nM
same,TGI,OVCAR-8 ovarian,> 100000 nM
same,TGI,NCI-H226 lung,> 100000 nM
same,TGI,OVCAR-4 ovarian,> 100000 nM
same,TGI,SF-539 CNS,> 100000 nM
same,TGI,UACC-257 melanoma,> 100000 nM
same,TGI,NCI/ADR-RES ovarian,> 100000 nM
same,TGI,HCT-15 colon,> 100000 nM
same,TGI,EKVX NSCLC,> 100000 nM
same,TGI,UO-31 renal,> 100000 nM
same,TGI,TK-10 renal,> 100000 nM
same,TGI,K-562 leukemia,> 100000 nM
same,TGI,SK-OV-3 ovarian,> 100000 nM
same,TGI,T-47D breast,> 100000 nM
same,TGI,HCT-116 colon,> 100000 nM
same,TGI,NCI-H522 lung,> 100000 nM
same,TGI,SNB-75 CNS,> 100000 nM
same,TGI,MDA-N,> 100000 nM
same,TGI,BT-549 breast,> 100000 nM
same,TGI,SK-MEL-28 melanoma,> 100000 nM
same,TGI,KM12 colon,> 100000 nM
same,TGI,HT29 colon,> 100000 nM
same,TGI,MALME-3M melanoma,> 100000 nM
same,TGI,HS 578T breast,> 100000 nM
same,TGI,NCI-H460 lung,> 100000 nM
same,TGI,MOLT-4 leukemia,> 100000 nM
same,TGI,RPMI-8226 leukemia,> 100000 nM
same,TGI,SK-MEL-2 melanoma,> 100000 nM
same,TGI,M14 melanoma,> 100000 nM
same,TGI,NCI-H23 lung,> 100000 nM
same,TGI,PC-3 prostate,> 100000 nM
